Laboratory results as given in ChEMBL document CHEMBL1201862, “PubChem BioAssay data set” (2004).
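96-well plates; 48 h exposure; 5 concentrations. Endpoints by linear interpolation between flanking doses. Not reached: highest tested concentration assigned. At the GI50, growth is halved.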 The source made the active and inactive calls. Cut-off read from the data, not from the text of the source: active = GI50 up to about 1.1 µM and inactive = higher.

Columns and labels:
Experiment in all cases: NCI tumour cell line growth inhibition, 48 h
OVCAR-4 = test system: OVCAR-4
MOLT-4 = test system: MOLT-4
CAKI-1 = test system: CAKI-1
SF-539 = test system: SF-539
ACHN = test system: ACHN
UACC-62 = test system: UACC-62
A498 = test system: A498
T47D = test system: T47D
EKVX = test system: EKVX
SK-MEL-2 = test system: SK-MEL-2
MDA-MB-231 = test system: MDA-MB-231
TK-10 = test system: TK-10
MDA-N = test system: MDA-N
CCRF-CEM = test system: CCRF-CEM
SK-OV-3 = test system: SK-OV-3
SK-MEL-28 = test system: SK-MEL-28
HT-29 = test system: HT-29
SF-295 = test system: SF-295
SNB-19 = test system: SNB-19
RPMI-8226 = test system: RPMI-8226
U-251 = test system: U-251
NCI-H23 = test system: NCI-H23
MCF7 = test system: MCF7
OVCAR-8 = test system: OVCAR-8
HCT-116 = test system: HCT-116
SK-MEL-5 = test system: SK-MEL-5
RXF 393 = test system: RXF 393
HCT-15 = test system: HCT-15
UO-31 = test system: UO-31
HOP-92 = test system: HOP-92
K562 = test system: K562
MDA-MB-435 = test system: MDA-MB-435
NCI/ADR-RES = test system: NCI/ADR-RES
M14 = test system: M14
HCC 2998 = test system: HCC 2998
SW-620 = test system: SW-620
DU-145 = test system: DU-145
HL-60 = test system: HL-60
A549 = test system: A549
OVCAR-3 = test system: OVCAR-3
UACC-257 = test system: UACC-257
LOX IMVI = test system: LOX IMVI
NCI-H460 = test system: NCI-H460
NCI-H522 = test system: NCI-H522
Malme-3M = test system: Malme-3M
Hs-578T = test system: Hs-578T
OVCAR-5 = test system: OVCAR-5
786-0 = test system: 786-0
SF-268 = test system: SF-268
KM12 = test system: KM12
PC-3 = test system: PC-3
NCI-H226 = test system: NCI-H226
IGROV-1 = test system: IGROV-1
SN12C = test system: SN12C
HOP-62 = test system: HOP-62
COLO 205 = test system: COLO 205
SNB-75 = test system: SNB-75

Question: Which results are given for `CN1N=C(c2ccncc2)OC1c1ccc(Cl)c(Cl)c1` (centres undefined)?
Answer: GI50 (OVCAR-4): > 100 µM (inactive); GI50 (MOLT-4): 44.5 µM (inactive); GI50 (CAKI-1): > 100 µM (inactive); GI50 (SF-539): > 100 µM (inactive); GI50 (ACHN): > 100 µM (inactive); GI50 (UACC-62): > 100 µM (inactive); GI50 (A498): 82 µM (inactive); GI50 (T47D): > 100 µM (inactive); GI50 (EKVX): > 100 µM (inactive); GI50 (SK-MEL-2): > 100 µM (inactive); GI50 (MDA-MB-231): > 100 µM (inactive); GI50 (TK-10): > 100 µM (inactive); GI50 (MDA-N): > 100 µM (inactive); GI50 (CCRF-CEM): 71.6 µM (inactive); GI50 (SK-OV-3): > 100 µM (inactive); GI50 (SK-MEL-28): > 100 µM (inactive); GI50 (HT-29): 60.8 µM (inactive); GI50 (SF-295): > 100 µM (inactive); GI50 (SNB-19): > 100 µM (inactive); GI50 (RPMI-8226): > 100 µM (inactive); GI50 (U-251): > 100 µM (inactive); GI50 (NCI-H23): > 100 µM (inactive); GI50 (MCF7): > 100 µM (inactive); GI50 (OVCAR-8): > 100 µM (inactive); GI50 (HCT-116): > 100 µM (inactive); GI50 (SK-MEL-5): > 100 µM (inactive); GI50 (RXF 393): 74.1 µM (inactive); GI50 (HCT-15): > 100 µM; GI50 (UO-31): > 100 µM (inactive); GI50 (HOP-92): > 100 µM (inactive); GI50 (K562): 61.8 µM (inactive); GI50 (MDA-MB-435): > 100 µM (inactive); GI50 (NCI/ADR-RES): > 100 µM (inactive); GI50 (M14): > 100 µM (inactive); GI50 (HCC 2998): > 100 µM (inactive); GI50 (SW-620): > 100 µM (inactive); GI50 (DU-145): > 100 µM (inactive); GI50 (HL-60): 69.8 µM (inactive); GI50 (A549): > 100 µM (inactive); GI50 (OVCAR-3): 72.4 µM (inactive); GI50 (UACC-257): > 100 µM (inactive); GI50 (LOX IMVI): > 100 µM (inactive); GI50 (NCI-H460): > 100 µM (inactive); GI50 (NCI-H522): > 100 µM (inactive); GI50 (Malme-3M): > 100 µM (inactive); GI50 (Hs-578T): > 100 µM (inactive); GI50 (OVCAR-5): > 100 µM (inactive); GI50 (786-0): 83.6 µM (inactive); GI50 (SF-268): > 100 µM (inactive); GI50 (KM12): > 100 µM (inactive); GI50 (PC-3): > 100 µM (inactive); GI50 (NCI-H226): > 100 µM (inactive); GI50 (IGROV-1): > 100 µM (inactive); GI50 (SN12C): > 100 µM (inactive); GI50 (HOP-62): > 100 µM (inactive); GI50 (COLO 205): > 100 µM (inactive)

Question: For `CC(=O)NC(CCCCNC(=O)OC(C)(C)C)C(=O)O` (centres undefined), which GI50 (OVCAR-4) is on record?
Answer: > 100 µM (inactive)

Question: What about the GI50 (MOLT-4) of the same molecule?
Answer: > 100 µM (inactive)

Question: What about the GI50 (CAKI-1) of the same molecule?
Answer: 63.4 µM (inactive)

Question: And the GI50 (ACHN)?
Answer: > 100 µM (inactive)

Question: What about the GI50 (UACC-62) of the same molecule?
Answer: > 100 µM (inactive)

Question: What about the GI50 (A498) of the same molecule?
Answer: 26.1 µM (inactive)

Question: And the GI50 (T47D)?
Answer: > 100 µM (inactive)

Question: And the GI50 (EKVX)?
Answer: > 100 µM (inactive)

Question: What about the GI50 (MDA-MB-231) of the same molecule?
Answer: > 100 µM (inactive)

Question: And the GI50 (TK-10)?
Answer: > 100 µM (inactive)

Question: What about the GI50 (MDA-N) of the same molecule?
Answer: > 100 µM (inactive)

Question: What about the GI50 (CCRF-CEM) of the same molecule?
Answer: > 100 µM (inactive)

Question: What about the GI50 (SK-MEL-28) of the same molecule?
Answer: > 100 µM (inactive)

Question: What about the GI50 (HT-29) of the same molecule?
Answer: > 100 µM (inactive)

Question: What about the GI50 (SF-295) of the same molecule?
Answer: > 100 µM (inactive)

Question: What about the GI50 (SNB-19) of the same molecule?
Answer: > 100 µM (inactive)

Question: And the GI50 (RPMI-8226)?
Answer: > 100 µM (inactive)

Question: And the GI50 (U-251)?
Answer: > 100 µM (inactive)

Question: What about the GI50 (MCF7) of the same molecule?
Answer: > 100 µM (inactive)

Question: What about the GI50 (OVCAR-8) of the same molecule?
Answer: > 100 µM (inactive)

Question: And the GI50 (HCT-116)?
Answer: > 100 µM (inactive)

Question: And the GI50 (SK-MEL-5)?
Answer: > 100 µM (inactive)

Question: And the GI50 (HCT-15)?
Answer: > 100 µM

Question: And the GI50 (UO-31)?
Answer: > 100 µM (inactive)

Question: What about the GI50 (K562) of the same molecule?
Answer: > 100 µM (inactive)

Question: And the GI50 (MDA-MB-435)?
Answer: > 100 µM (inactive)

Question: And the GI50 (NCI/ADR-RES)?
Answer: > 100 µM (inactive)

Question: And the GI50 (M14)?
Answer: > 100 µM (inactive)

Question: What about the GI50 (HCC 2998) of the same molecule?
Answer: > 100 µM (inactive)

Question: And the GI50 (SW-620)?
Answer: > 100 µM (inactive)

Question: What about the GI50 (DU-145) of the same molecule?
Answer: > 100 µM (inactive)

Question: And the GI50 (HL-60)?
Answer: > 100 µM (inactive)

Question: And the GI50 (A549)?
Answer: > 100 µM (inactive)

Question: And the GI50 (OVCAR-3)?
Answer: > 100 µM (inactive)

Question: What about the GI50 (UACC-257) of the same molecule?
Answer: > 100 µM (inactive)

Question: And the GI50 (LOX IMVI)?
Answer: > 100 µM (inactive)

Question: What about the GI50 (NCI-H460) of the same molecule?
Answer: > 100 µM (inactive)

Question: And the GI50 (NCI-H522)?
Answer: > 100 µM (inactive)

Question: And the GI50 (Malme-3M)?
Answer: > 100 µM (inactive)

Question: And the GI50 (OVCAR-5)?
Answer: 38.1 µM (inactive)

Question: What about the GI50 (SF-268) of the same molecule?
Answer: > 100 µM (inactive)

Question: What about the GI50 (PC-3) of the same molecule?
Answer: > 100 µM (inactive)

Question: And the GI50 (IGROV-1)?
Answer: > 100 µM (inactive)

Question: And the GI50 (HOP-62)?
Answer: > 100 µM (inactive)

Question: And the GI50 (COLO 205)?
Answer: > 100 µM (inactive)

Question: With `C=CCOC(=O)CCCCCCCCCCCCCCCOC(=O)C1=C(CCC[C@@H](C)O[Si](C)(C)C(C)(C)C)N=C(N)N2[C@H](CC3(CC/C=C\[C@H](CC)O[Si](C(C)C)(C(C)C)C(C)C)OCCO3)CC[C@@H]12` as the molecule, how does the GI50 (OVCAR-4) read?
Answer: > 100 µM (inactive)

Question: What about the GI50 (ACHN) of the same molecule?
Answer: > 100 µM (inactive)

Question: And the GI50 (A498)?
Answer: > 100 µM (inactive)

Question: What about the GI50 (T47D) of the same molecule?
Answer: > 100 µM (inactive)

Question: And the GI50 (SK-MEL-2)?
Answer: > 100 µM (inactive)

Question: And the GI50 (MDA-MB-231)?
Answer: > 100 µM (inactive)

Question: And the GI50 (TK-10)?
Answer: > 100 µM (inactive)

Question: And the GI50 (SK-OV-3)?
Answer: > 100 µM (inactive)

Question: And the GI50 (SNB-75)?
Answer: 83.8 µM (inactive)

Question: What about the GI50 (SK-MEL-28) of the same molecule?
Answer: > 100 µM (inactive)

Question: What about the GI50 (SNB-19) of the same molecule?
Answer: > 100 µM (inactive)

Question: And the GI50 (MCF7)?
Answer: 31.9 µM (inactive)

Question: What about the GI50 (UO-31) of the same molecule?
Answer: 63.5 µM (inactive)

Question: What about the GI50 (K562) of the same molecule?
Answer: < 0.01 µM (active)

Question: What about the GI50 (HCC 2998) of the same molecule?
Answer: 49.3 µM (inactive)

Question: What about the GI50 (DU-145) of the same molecule?
Answer: > 100 µM (inactive)

Question: And the GI50 (NCI-H226)?
Answer: > 100 µM (inactive)

Question: What about the GI50 (SN12C) of the same molecule?
Answer: > 100 µM (inactive)
